Data reported in patent publication US8987445B2, “Sulfonamide compounds having TRPM8 antagonistic activity” (Mitsubishi Tanabe Pharma Corporation, priority 2011, dated 2015).

Target: human TRPM8 (Homo sapiens (Human), UniProt Q7Z2W7)
Experiment: TRPM8 inhibition assay (menthol-induced calcium influx, FDSS)
Type: cell-based
Conditions: HEK293 cells stably expressing human TRPM8; 100 μM menthol; Fura-2AM Ca2+ signal; read-out: TRPM8 Blocking Test (IC50)
Method: The functional activity of compounds was determined by measuring changes in intracellular calcium concentration using a Ca^2+ sensitive fluorescent dye. The changes in fluorescent signal were monitored by the cell imaging technology by Hamamatsu Photonics's Functional Drug Screening System (FDSS). […] HEK293 cells stably expressing human TRPM8 were grown in flasks. On assay day, the culture medium was removed, and cells were washed with phosphate-buffered saline (PBS) and harvested with PBS containing 2 mM ethylenediaminetetraacetic acid, disodium salt (EDTA, 2Na). […] Subsequently, suspended 20,000 to 50,000 cells per well were incubated with test compound (at varying concentrations) in each well for 20 min at 37° C. Changes in intracellular Ca^2+ evoked by 100 μM menthol were measured for 2 min using FDSS. IC50 vales were determined from four-point concentration-response studies. Curves were generated using the average of quadruplicate wells for each data point.

Sequence of human TRPM8 (Q7Z2W7 whole entry): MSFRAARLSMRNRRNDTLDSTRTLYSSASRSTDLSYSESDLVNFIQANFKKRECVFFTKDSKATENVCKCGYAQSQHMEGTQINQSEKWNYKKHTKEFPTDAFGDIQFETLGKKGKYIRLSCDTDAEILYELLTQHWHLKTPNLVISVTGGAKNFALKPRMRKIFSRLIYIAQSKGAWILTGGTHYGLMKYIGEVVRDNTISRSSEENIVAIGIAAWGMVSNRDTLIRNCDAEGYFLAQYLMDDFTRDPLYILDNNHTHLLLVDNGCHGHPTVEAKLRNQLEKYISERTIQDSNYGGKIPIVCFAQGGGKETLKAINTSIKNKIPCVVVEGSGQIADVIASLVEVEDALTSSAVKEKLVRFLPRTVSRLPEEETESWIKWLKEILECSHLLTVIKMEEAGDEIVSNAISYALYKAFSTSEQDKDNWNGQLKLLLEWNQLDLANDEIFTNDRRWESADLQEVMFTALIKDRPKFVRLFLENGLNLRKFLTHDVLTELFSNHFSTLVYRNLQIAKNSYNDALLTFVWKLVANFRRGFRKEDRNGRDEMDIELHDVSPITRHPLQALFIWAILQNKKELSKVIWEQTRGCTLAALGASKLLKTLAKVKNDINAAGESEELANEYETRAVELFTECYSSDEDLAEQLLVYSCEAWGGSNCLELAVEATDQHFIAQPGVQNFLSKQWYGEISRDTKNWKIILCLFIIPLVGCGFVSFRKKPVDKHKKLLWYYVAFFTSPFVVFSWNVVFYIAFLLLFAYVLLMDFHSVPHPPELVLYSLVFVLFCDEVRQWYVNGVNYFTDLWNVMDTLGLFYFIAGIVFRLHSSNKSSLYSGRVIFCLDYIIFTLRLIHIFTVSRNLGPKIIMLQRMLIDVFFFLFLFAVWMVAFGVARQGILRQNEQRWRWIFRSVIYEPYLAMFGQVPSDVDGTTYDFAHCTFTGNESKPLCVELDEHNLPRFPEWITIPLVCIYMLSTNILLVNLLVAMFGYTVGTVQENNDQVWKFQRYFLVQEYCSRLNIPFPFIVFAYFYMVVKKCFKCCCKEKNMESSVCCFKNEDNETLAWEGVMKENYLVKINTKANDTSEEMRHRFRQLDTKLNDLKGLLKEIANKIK

Row | SMILES | IC50 [µM]
1 | Cc1c(N(Cc2ccc(C(O)(C(F)(F)F)C(F)(F)F)cc2)S(=O)(=O)c2ccc(C(=O)O)cc2)ncc2ccccc12 [Example 128] | 0.04
2 | Cc1c(N(Cc2ccc(OC(F)(F)F)cc2)S(=O)(=O)c2ccc(C(=O)O)cc2)nc(Br)c2ccccc12 [Example 129] | 0.015
3 | O=C(O)c1ccc(S(=O)(=O)N(Cc2ccc(OC(F)(F)F)cc2)c2ncc(Cl)c3ccccc23)cc1 [Example 130] | 0.094
4 | Cc1ccc2c(C)c(N(Cc3ccc(OC(F)(F)F)cc3)S(=O)(=O)c3ccc(C(=O)O)cc3)ncc2c1 [Example 131] | 0.109
5 | Cc1c(N(Cc2ccc(F)c(C(F)(F)F)c2)S(=O)(=O)c2ccc(C(=O)O)cc2)nc(C2CC2)c2ccccc12 [Example 132] | 0.0038
6 | Cc1cc2cccc(Cl)c2nc1N(Cc1ccc(OC(F)(F)F)cc1)S(=O)(=O)c1ccc(C(=O)O)cc1 [Example 133] | 0.0043
7 | Cc1cc2ccc(Cl)cc2nc1N(Cc1ccc(OC(F)(F)F)cc1)S(=O)(=O)c1ccc(C(=O)O)cc1 [Example 134] | 0.695
8 | Cc1ccc2cnc(N(Cc3ccc(OC(F)(F)F)cc3)S(=O)(=O)c3ccc(C(=O)O)cc3)c(C)c2c1 [Example 135] | 0.136
9 | Cc1cccc2c(C)c(N(Cc3ccc(OC(F)(F)F)cc3)S(=O)(=O)c3ccc(C(=O)O)cc3)ncc12 [Example 136] | 0.031
10 | Cc1cccc2cnc(N(Cc3ccc(OC(F)(F)F)cc3)S(=O)(=O)c3ccc(C(=O)O)cc3)c(C)c12 [Example 137] | 0.0031
11 | Cc1c(N(Cc2ccccc2)S(=O)(=O)c2ccc(C(=O)O)cc2)nc(C2CC2)c2ccccc12 [Example 139] | 0.012
12 | O=C(O)c1ccc(S(=O)(=O)N(Cc2ccc(OC(F)(F)F)cc2)c2cc3ccccc3c(Br)n2)cc1 [Example 143] | 0.131
13 | CCc1cc2ccccc2nc1N(Cc1ccc(OC(F)(F)F)cc1)S(=O)(=O)c1ccc(C(=O)O)cc1 [Example 144] | 0.054
14 | Cc1cc2cc(F)ccc2nc1N(Cc1ccc(OC(F)(F)F)cc1)S(=O)(=O)c1ccc(C(=O)O)cc1 [Example 145] | 0.091
15 | Cc1cc2ccc(F)cc2nc1N(Cc1ccc(OC(F)(F)F)cc1)S(=O)(=O)c1ccc(C(=O)O)cc1 [Example 146] | 0.07
16 | O=C(O)c1ccc(S(=O)(=O)N(Cc2ccc(OC(F)(F)F)cc2)c2cc3c(Cl)cccc3c(Br)n2)cc1 [Example 148] | 0.287
17 | CC(C)c1nc(N(Cc2ccc(OC(F)(F)F)cc2)S(=O)(=O)c2ccc(C(=O)O)cc2)c(C(C)C)c2ccccc12 [Example 150] | 0.048
18 | CC(=O)c1ccc(S(=O)(=O)N(Cc2ccc(OC(F)(F)F)cc2)c2ncc3ccccc3c2C)cc1 [Example 152, 4-acetyl-N-(4-methylisoquinolin-3-yl)-N-[4-(trifluoromethoxy)benzyl]benzenesulfonamide] | 0.095
19 | O=C(O)c1ccc(S(=O)(=O)N(Cc2ccc(OC(F)(F)F)cc2)c2ncc3ccccc3c2Br)cc1 [Example 154] | 0.0023
20 | CCc1c(N(Cc2ccc(OC(F)(F)F)cc2)S(=O)(=O)c2ccc(C(=O)O)cc2)ncc2ccccc12 [Example 155] | 0.0062
21 | O=C(O)c1ccc(S(=O)(=O)N(Cc2ccc(OC(F)(F)F)cc2)c2cc3ccccc3cn2)cc1 [Example 156] | 0.023
22 | Cc1c(N(Cc2ccc(C(C)(O)C(F)(F)F)c(F)c2)S(=O)(=O)c2ccc(C(=O)O)cc2)ncc2ccccc12 (stereo not shown) [Example 169] | 0.055

Row | SMILES | IC50 [µM]
23 | Cc1c(N(Cc2ccc(CC3CC3)c(F)c2)S(=O)(=O)c2ccc(C(=O)O)cc2)ncc2ccccc12 [Example 170] | 0.0029
24 | Cc1c(N(Cc2ccc(CC3CC3)cc2F)S(=O)(=O)c2ccc(C(=O)O)cc2)ncc2ccccc12 [Example 171] | 0.0071
25 | Cc1c(N(Cc2ccc(C(C)(O)C(F)(F)F)c(Cl)c2)S(=O)(=O)c2ccc(C(=O)O)cc2)ncc2ccccc12 (stereo not shown) [Example 172] | 0.015
26 | Cc1c(N(Cc2ccc3c(c2)CCC3(O)C(F)(F)F)S(=O)(=O)c2ccc(C(=O)O)cc2)ncc2ccccc12 (stereo not shown) [Example 173] | 0.078
27 | Cc1c(N(Cc2ccc(C(C)(O)C(F)(F)C(F)(F)F)cc2)S(=O)(=O)c2ccc(C(=O)O)cc2)ncc2ccccc12 (stereo not shown) [Example 174] | 0.035
28 | Cc1c(N(Cc2cc(F)c3c(c2)CCC3)S(=O)(=O)c2ccc(C(=O)O)cc2)ncc2ccccc12 [Example 175] | 0.0044
29 | Cc1c(N(Cc2ccc3c(Cl)n[nH]c3c2)S(=O)(=O)c2ccc(C(=O)O)cc2)ncc2ccccc12 [Example 176] | 0.021
30 | Cc1c(N(Cc2ccc(C(O)(C3CC3)C(F)(F)F)cc2)S(=O)(=O)c2ccc(C(=O)O)cc2)ncc2ccccc12 (stereo not shown) [Example 177] | 0.03
31 | Cc1c(N(Cc2ccc3cn[nH]c3c2)S(=O)(=O)c2ccc(C(=O)O)cc2)ncc2ccccc12 [Example 178] | 0.601
32 | Cc1c(N(C2CCc3cc(OC(F)(F)F)ccc32)S(=O)(=O)c2ccc(C(=O)O)cc2)ncc2ccccc12 (stereo not shown) [Example 179] | 0.0021
33 | Cc1cc2ccccc2nc1N(Cc1ccc2c(c1)CCCC2)S(=O)(=O)c1ccc(C(=O)O)cc1 [Example 180] | 0.0069
34 | Cc1c(N(Cc2ccc(C(F)(F)C3CC3)c(Cl)c2)S(=O)(=O)c2ccc(C(=O)O)cc2)nc(C2CC2)c2ccccc12 [Example 181] | 0.001
35 | Cc1cc2ccccc2nc1N(Cc1ccc(C(F)(F)C2CC2)cc1)S(=O)(=O)c1ccc(C(=O)O)cc1 [Example 182] | 0.004
36 | Cc1cc2ccccc2nc1N(Cc1ccc(CC2CC2)cc1)S(=O)(=O)c1ccc(C(=O)O)cc1 [Example 183] | 0.0077
37 | O=C(O)c1ccc(S(=O)(=O)N(c2ncc3ccccc3c2C2CC2)C2CCc3cc(OC(F)(F)F)ccc32)cc1 (stereo not shown) [Example 187] | 0.128
38 | Cc1nc2cc(CN(c3ncc4ccccc4c3C)S(=O)(=O)c3ccc(C(=O)O)cc3)ccc2s1 [Example 188] | 0.155
39 | Cc1c(N(Cc2ccc(C(F)(F)C3CCC3)cc2)S(=O)(=O)c2ccc(C(=O)O)cc2)ncc2ccccc12 [Example 189] | 0.0017
40 | Cc1nc2ccc(CN(c3ncc4ccccc4c3C)S(=O)(=O)c3ccc(C(=O)O)cc3)cc2s1 [Example 190] | 0.148
41 | Cc1c(N(Cc2ccc(C(F)(F)C3CC3)cc2)S(=O)(=O)c2ccc(C(=O)O)cc2)ncc2ccccc12 [Example 191] | 0.0046
42 | Cc1c(N(Cc2ccc(COC(F)(F)F)cc2)S(=O)(=O)c2ccc(C(=O)O)cc2)ncc2ccccc12 [Example 192] | 0.0088
43 | Cc1c(N(Cc2ccc(CC3(C(F)(F)F)CC3)cc2)S(=O)(=O)c2ccc(C(=O)O)cc2)ncc2ccccc12 [Example 193] | 0.0039
44 | Cc1c(N(Cc2cc3c(F)cc(F)cc3s2)S(=O)(=O)c2ccc(C(=O)O)cc2)ncc2ccccc12 [Example 194] | 0.0013

Row | SMILES | IC50 [µM]
45 | Cc1c(N(Cc2cc3cc(F)cc(F)c3s2)S(=O)(=O)c2ccc(C(=O)O)cc2)ncc2ccccc12 [Example 195] | 0.006
46 | Cc1c(N(Cc2cc3c(Cl)cccc3s2)S(=O)(=O)c2ccc(C(=O)O)cc2)ncc2ccccc12 [Example 196] | 0.0022
47 | Cc1c(N(Cc2sc3ccccc3c2Cl)S(=O)(=O)c2ccc(C(=O)O)cc2)ncc2ccccc12 [Example 197] | 0.0046
48 | Cc1c(N(Cc2cc3ccc(Cl)cc3s2)S(=O)(=O)c2ccc(C(=O)O)cc2)ncc2ccccc12 [Example 198] | 0.011
49 | Cc1c(N(Cc2cc3cccc(Cl)c3s2)S(=O)(=O)c2ccc(C(=O)O)cc2)ncc2ccccc12 [Example 199] | 0.0039
50 | Cc1c(N(Cc2cc3cc(Cl)ccc3s2)S(=O)(=O)c2ccc(C(=O)O)cc2)ncc2ccccc12 [Example 200] | 0.0054
51 | Cc1c(N(Cc2ccc(C(F)(F)C3CC3)c(Cl)c2)S(=O)(=O)c2ccc(C(=O)O)cc2)ncc2ccccc12 [Example 201] | 0.0006
52 | Cc1cc2ccccc2nc1N(Cc1ccc(C(F)(F)C2CC2)c(Cl)c1)S(=O)(=O)c1ccc(C(=O)O)cc1 [Example 202] | 0.0014
53 | Cc1c(N(Cc2ccc(C(F)(F)C3CC3)c(F)c2)S(=O)(=O)c2ccc(C(=O)O)cc2)ncc2ccccc12 [Example 203] | 0.0015
54 | Cc1cc2ccccc2nc1N(Cc1ccc(C(F)(F)C2CC2)c(F)c1)S(=O)(=O)c1ccc(C(=O)O)cc1 [Example 204] | 0.0031
55 | Cc1c(N(Cc2cccc(C(F)(F)C3CC3)c2)S(=O)(=O)c2ccc(C(=O)O)cc2)ncc2ccccc12 [Example 205] | 0.031
56 | Cc1cc2ccccc2nc1N(Cc1cccc(C(F)(F)C2CC2)c1)S(=O)(=O)c1ccc(C(=O)O)cc1 [Example 206] | 0.021
57 | Cc1c(N(Cc2ccc(F)c(C(F)(F)C3CC3)c2)S(=O)(=O)c2ccc(C(=O)O)cc2)ncc2ccccc12 [Example 207] | 0.011
58 | Cc1cc2ccccc2nc1N(Cc1ccc(F)c(C(F)(F)C2CC2)c1)S(=O)(=O)c1ccc(C(=O)O)cc1 [Example 208] | 0.0096
59 | Cc1c(N(Cc2ccc(C(F)(F)C3(C)CC3)cc2)S(=O)(=O)c2ccc(C(=O)O)cc2)ncc2ccccc12 [Example 209] | 0.001
60 | Cn1ccc2c(N(Cc3ccc(OC(F)(F)F)cc3)S(=O)(=O)c3ccc(C(=O)O)cc3)ncc(Cl)c21 [Example 211] | 0.987
61 | O=C(O)c1ccc(S(=O)(=O)N(Cc2ccc(OC(F)(F)F)cc2)c2ncc(Cl)c3sccc23)cc1 [Example 212] | 0.075
62 | Cc1c(N(Cc2ccc(OC(F)(F)F)cc2)S(=O)(=O)c2ccc(C(=O)O)cc2)nc(-c2cccnc2)c2ccccc12 [Example 213] | 0.116
63 | CCc1nc(N(Cc2ccc(OC(F)(F)F)cc2)S(=O)(=O)c2ccc(C(=O)O)cc2)c(C)c2ccccc12 [Example 214] | 0.0081
64 | Cc1c(N(Cc2ccc(OC(F)(F)F)cc2)S(=O)(=O)c2ccc(C(=O)O)cc2)nc(C2CC2)c2c(C)cccc12 [Example 215] | 0.0082
